What was measured:
[1] = target: T1, ATPase family AAA domain-containing protein 2B (Homo sapiens, UniProt Q9ULI0); experiment: Binding affinity to human ATAD2B BRD assessed as dissociation constant by isothermal titration calorimetry
T1 sequence (Q9ULI0 whole entry): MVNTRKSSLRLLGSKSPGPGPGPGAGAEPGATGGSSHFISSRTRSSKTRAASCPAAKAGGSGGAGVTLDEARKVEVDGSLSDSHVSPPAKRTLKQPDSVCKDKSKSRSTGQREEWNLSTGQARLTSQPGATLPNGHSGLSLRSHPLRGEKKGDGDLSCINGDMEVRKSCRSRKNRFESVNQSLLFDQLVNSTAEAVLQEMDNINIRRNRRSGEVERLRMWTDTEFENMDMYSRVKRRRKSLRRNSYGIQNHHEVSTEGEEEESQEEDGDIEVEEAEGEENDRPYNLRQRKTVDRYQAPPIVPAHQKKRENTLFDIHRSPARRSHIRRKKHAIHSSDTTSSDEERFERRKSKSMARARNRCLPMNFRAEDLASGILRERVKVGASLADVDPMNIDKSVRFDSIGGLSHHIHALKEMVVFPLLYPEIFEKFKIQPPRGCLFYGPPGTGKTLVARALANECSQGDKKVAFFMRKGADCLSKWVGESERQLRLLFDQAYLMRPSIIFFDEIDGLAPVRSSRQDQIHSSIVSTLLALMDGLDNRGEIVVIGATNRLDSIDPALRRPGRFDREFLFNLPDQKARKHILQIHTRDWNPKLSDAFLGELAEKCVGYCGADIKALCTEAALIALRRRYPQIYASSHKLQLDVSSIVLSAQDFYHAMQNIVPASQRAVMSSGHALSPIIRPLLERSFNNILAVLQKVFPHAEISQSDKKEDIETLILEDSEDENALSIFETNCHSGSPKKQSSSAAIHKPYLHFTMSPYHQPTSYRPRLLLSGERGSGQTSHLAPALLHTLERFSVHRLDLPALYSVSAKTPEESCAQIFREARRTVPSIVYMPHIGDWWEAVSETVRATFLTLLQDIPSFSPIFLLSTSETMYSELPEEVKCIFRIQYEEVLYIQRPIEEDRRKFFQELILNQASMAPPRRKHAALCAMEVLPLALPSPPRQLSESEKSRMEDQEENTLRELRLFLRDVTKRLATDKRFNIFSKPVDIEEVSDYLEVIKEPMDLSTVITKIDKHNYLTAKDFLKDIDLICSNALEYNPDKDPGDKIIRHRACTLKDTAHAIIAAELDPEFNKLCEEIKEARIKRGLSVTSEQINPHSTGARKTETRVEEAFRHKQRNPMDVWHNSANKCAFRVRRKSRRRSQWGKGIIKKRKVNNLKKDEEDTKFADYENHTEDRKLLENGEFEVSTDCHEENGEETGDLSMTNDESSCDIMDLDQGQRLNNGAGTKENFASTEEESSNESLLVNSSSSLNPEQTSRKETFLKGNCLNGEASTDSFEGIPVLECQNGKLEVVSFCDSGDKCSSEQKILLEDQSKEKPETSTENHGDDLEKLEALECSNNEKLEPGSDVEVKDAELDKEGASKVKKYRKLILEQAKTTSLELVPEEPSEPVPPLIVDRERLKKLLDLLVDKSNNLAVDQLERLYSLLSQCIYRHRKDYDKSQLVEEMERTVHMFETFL

[2] = target: T2, ATPase family AAA domain-containing protein 2 (Homo sapiens, UniProt Q6PL18); experiment: Binding affinity to human ATAD2 BRD assessed as dissociation constant by isothermal titration calorimetry
T2 sequence (Q6PL18 whole entry): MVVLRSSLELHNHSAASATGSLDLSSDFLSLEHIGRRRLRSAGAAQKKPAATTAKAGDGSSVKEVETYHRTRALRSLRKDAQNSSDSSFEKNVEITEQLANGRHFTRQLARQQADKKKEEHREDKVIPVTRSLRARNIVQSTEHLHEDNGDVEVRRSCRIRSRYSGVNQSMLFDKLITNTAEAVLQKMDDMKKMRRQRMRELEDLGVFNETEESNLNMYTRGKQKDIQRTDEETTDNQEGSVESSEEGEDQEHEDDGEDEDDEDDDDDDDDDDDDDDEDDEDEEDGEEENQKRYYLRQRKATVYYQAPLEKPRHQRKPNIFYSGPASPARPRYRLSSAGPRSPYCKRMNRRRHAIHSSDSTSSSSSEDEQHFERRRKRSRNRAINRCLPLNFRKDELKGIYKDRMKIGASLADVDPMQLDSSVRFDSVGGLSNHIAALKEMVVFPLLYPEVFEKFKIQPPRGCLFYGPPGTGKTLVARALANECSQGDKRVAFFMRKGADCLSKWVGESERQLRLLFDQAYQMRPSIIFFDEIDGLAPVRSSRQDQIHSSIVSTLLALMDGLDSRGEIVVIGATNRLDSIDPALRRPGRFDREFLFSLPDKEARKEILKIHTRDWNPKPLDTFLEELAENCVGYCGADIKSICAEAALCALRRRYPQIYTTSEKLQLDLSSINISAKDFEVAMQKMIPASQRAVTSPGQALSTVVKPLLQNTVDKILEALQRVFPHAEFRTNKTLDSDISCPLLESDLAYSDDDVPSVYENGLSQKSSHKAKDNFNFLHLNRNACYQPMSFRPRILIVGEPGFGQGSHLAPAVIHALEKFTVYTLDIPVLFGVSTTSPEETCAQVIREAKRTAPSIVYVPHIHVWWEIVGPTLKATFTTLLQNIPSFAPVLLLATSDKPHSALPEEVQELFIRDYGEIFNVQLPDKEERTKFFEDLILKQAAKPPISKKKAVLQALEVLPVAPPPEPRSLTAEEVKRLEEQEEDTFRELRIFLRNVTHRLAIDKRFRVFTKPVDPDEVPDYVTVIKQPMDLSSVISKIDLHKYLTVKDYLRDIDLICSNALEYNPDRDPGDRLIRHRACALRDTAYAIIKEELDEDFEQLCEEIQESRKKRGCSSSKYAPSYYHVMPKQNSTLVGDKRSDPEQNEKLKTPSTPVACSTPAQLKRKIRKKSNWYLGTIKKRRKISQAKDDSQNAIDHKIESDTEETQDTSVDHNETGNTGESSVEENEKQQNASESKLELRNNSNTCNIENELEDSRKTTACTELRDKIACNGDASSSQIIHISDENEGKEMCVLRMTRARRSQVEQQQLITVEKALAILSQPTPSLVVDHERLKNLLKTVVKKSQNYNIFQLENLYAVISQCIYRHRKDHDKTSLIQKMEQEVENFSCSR

Kd [1] | Kd [2] | Compound
Not Active | Not Active | CC(=O)NCCCC[C@H](NC(=O)[C@H](CO)NC(=O)[C@H](CCCNC(=N)N)NC(=O)CNC(=O)[C@@H](N)CO)C(=O)NCC(=O)NCC(=O)N[C@@H](CCCCN)C(=O)NCC(=O)N[C@@H](CC(C)C)C(=O)NCC(=O)N[C@@H](CCCCN)C(=O)NCC(=O)NCC(=O)N[C@@H](C)C(=O)O
 | Not Active | H-AGGK(Ac)AGKDSGKAKTK-OH
Not Active | Not Active | H-AGGKAGKDSGKAKTK-OH

Further lines, the compound ahead of its results:

Compound | Kd [1] | Kd [2]
CC(=O)NCCCC[C@H](NC(=O)[C@H](CC(=O)O)NC(=O)[C@H](CCCNC(=N)N)NC(=O)CNC(=O)[C@@H](N)CO)C(=O)NCC(=O)NCC(=O)N[C@@H](CCCCN)C(=O)NCC(=O)N[C@@H](CC(C)C)C(=O)NCC(=O)N[C@@H](CCCCN)C(=O)NCC(=O)NCC(=O)N[C@@H](C)C(=O)O | Not Active | Not Active
H-AGGK(Ac)AGK(Ac)DSGKAKTK-OH | Not Active | Not Active
H-SGRGKTGGKARAKAKSR-OH | Not Active | Not Active

From ChEMBL document CHEMBL5506047, “Impact of Combinatorial Histone Modifications on Acetyllysine Recognition by the ATAD2 and ATAD2B Bromodomains” (J Med Chem, 2024)
